In patent US20230210834A1, “RNA METHYLTRANSFERASE INHIBITOR, SCREENING METHOD THEREFOR, ANTI-CANCER AGENT EFFICACY ASSESSMENT MARKER, AND KIT FOR EFFECTIVELY PREDICTING FTSJ1 INHIBITOR” (National University Corporation Okayama University, priority 2019, published 2023):

How the values were obtained:
[1] = tested on: polyglutamine luciferase reporter; experiment: Screening: polyglutamine luciferase reporter assay in NUGC3 cells (luminescence % of DMSO); type: cell-based, human; settings: NUGC3 cells, luminescence relative to DMSO, concentration not given
Experimental: (§1) Human gastric cancer cell line NUGC3 was cultured in a DMEM medium (high glucose with L-glutamine and phenol red, produced by FUJIFILM Wako Pure Chemical Corporation) containing 10% fetal bovine serum (produced by Thermo Fisher Scientific Inc.) and penicillin-streptomycin (produced by FUJIFILM Wako Pure Chemical Corporation) (this medium is simply referred to below as “DMEM+10% FBS+1×P/S”). Then, the NUGC3 cells were seeded in a 60-mm culture dish (produced by BioLite) so that the cells were 80% confluent after 24 hours. Subsequently, 5 μg of a reporter plasmid and 15 μL of a lipofection reagent (transIT-LT1, produced by Mirus Bio LLC) were mixed in 500 μL of Opti-MEM medium (produced by Thermo Fisher Scientific, Inc.) to form a complex, which was added to the medium in which the NUGC3 cells were cultured in the 60-mm culture dish. For use as the reporter plasmid, 5 μg of a polyglutamine luciferase reporter was introduced (in the polyglutamine luciferase reporter, a Renilla luciferase expressed in the IRES was located as an internal standard downstream of the sequence of a firefly luciferase sequence to which polyglutamine was added). Alternatively, a YAP/TAZ activity reporter was used by simultaneously introducing 3 μg of 8×GTIIC plasmid and 2 μg of a Renilla luciferase reporter as an internal standard. After another 24 hours, the cells were exfoliated with a 0.05 w/v % trypsin-0.53 mmol/l EDTA-4Na solution (produced by FUJIFILM Wako Pure Chemical Corporation), and then seeded in a 96-well plate (produced by BioLite) so that the cells were 80% confluent after 24 hours. Twenty-four hours after seeding in the 96-well plate, the medium in each well was replaced with 100 μL of a medium (DMEM+10% FBS+an antibiotic) containing 10 μM or 5 μM of a compound for evaluation. After another 24 hours, the medium containing the compound was removed, and the 96-well plate was transferred on ice. Each well was washed with 100 μL of phosphate buffer (PBS, produced by FUJIFILM Wako Pure Chemical Corporation). Thereafter, 20 μL of Passive Lysis Buffer (1×) contained in a Dual-Luciferase Reporter Assay System (produced by Promega Corporation) was added. The plate was then gently shaken for 15 minutes at room temperature to lyse the cells. After confirming that the cells were lysed, 10 μL of the lysate was transferred from each well to each corresponding well of a white 96-well plate (produced by Greiner Bio-one). To each well of the white 96-well plate was added 100 μL of a mixture of a Luciferase Assay Buffer II and Luciferase Assay Substrate contained in the Dual-Luciferase Reporter Assay System (produced by Promega Corporation), whereby the luminescence of the firefly luciferase was induced, and the luminescence intensity was detected with a microluminometer (produced by Berthold Japan K.K.). Subsequently, 100 μL of a mixture of Stop & Glo Buffer and Stop & Glo Substrate contained in the Dual-Luciferase Reporter Assay System (produced by Promega Corporation) was added, whereby the luminescence of firefly luciferase was quenched while the luminescence of Renilla luciferase was induced, and the luminescence intensity was detected with a microluminometer (produced by Berthold Japan K.K.) in a manner similar to the above. The ratio of the luminescence intensity of the firefly luciferase and the luminescence intensity of the Renilla luciferase was calculated, and the luminescence intensity (%) of the wells containing each compound was calculated with the luminescence intensity of the well containing DMSO (dimethyl sulfoxide, used as a solvent for the compound liquids) taken as 100%. […] Unless otherwise specified, the measured values in the table represent the results obtained by evaluation with the addition of 10 μM of each compound for evaluation.

YAP/TAZ = experiment: Screening: YAP/TAZ activity reporter (8xGTIIC plasmid) assay in NUGC3 cells (luminescence % of DMSO); type: cell-based, human; settings: NUGC3 cells, luminescence relative to DMSO, concentration not given
Experimental: as §1

[2] = polyglutamine luciferase reporter
[3] = YAP/TAZ activity reporter (8×GTIIC)

SMILES | Polyglutamine [1, 2] | 8×GTIIC (YAP/TAZ; [3]) | Polyglutamine [1] | 8×GTIIC (YAP/TAZ)
Cc1cc(C)c(C)c(S(=O)(=O)CC2CCC(S(C)(=O)=O)CC2)c1C (stereo not shown) [SA093] | 38.43% | 39.06% |  | 
C=C(CCC)C1CCC(CS(=O)(=O)c2ccc(C)cc2C(C)(C)C)CC1 (stereo not shown) [SA069] | 76.83% | 67.61% |  | 
CCS(=O)(=O)C1CCC(CS(=O)(=O)c2ccc(C)cc2C)CC1 (stereo not shown) [SA075] | 110.7% | 95.02% |  | 
CCc1ccc(CC)c(C2CC(c3ccc(C)cc3)=NC2S(=O)(=O)c2ccccc2C)c1 (stereo not shown) [PVZF0067] |  |  | 32.14% | 34.58%
CCc1ccc(C2CC(c3ccc(C)cc3)=NC2S(=O)(=O)c2ccc(C)cc2)cc1 (stereo not shown) [PVZF0092] |  |  | 48.91% | 54.44%
Cc1ccccc1S(=O)(=O)CC1CCC(C2CC2)CC1 (stereo not shown) [SA034] | 77.96% | 87.42% |  | 
O=S(=O)(CCc1ccccc1)c1ccc(C2CCCCC2)cc1 [PVZF2068] | 53.21% | 74.24% |  | 
O=S(=O)(CCC1CCCCC1)c1ccc2ccccc2c1 [PVZF2015] | 51.29% | 51.25% |  | 
CCCCCCS(=O)(=O)c1ccc2ccccc2c1 [PVZF2011] | 28.85% | 36.2% |  | 
CCc1ccccc1C1CC(c2ccc(C)cc2)=NC1S(C)(=O)=O (stereo not shown) [PVZF0060] |  |  | 38.44% | 44.13%
CCCC(=O)C1CCC(CS(=O)(=O)c2ccc3c(c2)CCC(=O)C3)CC1 (stereo not shown) [SA022] | 102.2% | 66.88% |  | 
O=S(=O)(CC1CCCC1)c1ccc2ccccc2c1 [PVZF2010] | 33.13% | 24.49% |  | 
CCCCCCS(=O)(=O)c1ccc(C(C)(C)C)cc1 [PVZF2020] | 36.76% | 45.04% |  | 
Cc1ccc(S(=O)(=O)CC2CCC(S(C)(=O)=O)CC2)c(C)c1 (stereo not shown) [SA076] | 98.03% | 64.29% |  | 
COc1ccc(S(=O)(=O)C2CCC(CS(=O)(=O)c3c(C)c(C)c(C)c(C)c3C)CC2)cc1 (stereo not shown) [SA020] | 27.71% | 36.19% |  | 
Cc1ccc(S(=O)(=O)CC2CCC(S(C)(=O)=O)CC2)c(C(C)(C)C)c1 (stereo not shown) [SA085] | 86% | 83.09% |  | 
Cc1ccc(C2=NC(S(C)(=O)=O)C(c3ccc(C(C)C)cc3)C2)cc1 (stereo not shown) [PVZF0084] |  |  | 71.08% | 146.9%
Cc1ccc(C)c(S(=O)(=O)C2CCC(CS(=O)(=O)c3ccccc3)CC2)c1 (single isomer, unassigned) [SA014] | 72.95% | 93.69% |  | 
O=S(=O)(CC1CCC(C2CC2)CC1)c1ccc(C(F)(F)F)cc1 (stereo not shown) [SA033] | 96.01% | 96.16% |  | 
CC1CCC(S(=O)(=O)C2CCC(CS(=O)(=O)c3ccccc3)CC2)CC1 (stereo not shown) [SA072] | 73.98% | 68.16% |  | 
Cc1cc(C)c(S(=O)(=O)CC2CC(C)(C)CC(C)(C)C2)cc1C [SA009] | 73.02% | 80.29% |  | 
Cc1c(C)c(C)c(S(=O)(=O)CC2CC(C)(C)CC(C)(C)C2)c(C)c1C [SA028] | 60.03% | 59.49% |  | 
CCC(C)(C)c1ccc(S(=O)(=O)CCCC2=CCCCC2)cc1 [PVZF2044] | 45.42% | 55.05% |  | 
CCc1cccc(C2CC(c3ccccc3)=NC2S(=O)(=O)c2ccccc2C)c1CC (stereo not shown) [PVZF0050] |  |  | 58.65% | 106.2%
Cc1c(C)c(C)c(S(=O)(=O)CC2CCC(C3CC3)CC2)c(C)c1C (stereo not shown) [SA037] | 42.93% | 35.53% |  | 
Cc1ccc(S(=O)(=O)CC2CCC(C3CC3)CC2)c(C)c1 (stereo not shown) [SA057] | 79.6% | 73.76% |  | 
